“Also recorded” adds a separate entry of the source.
Legend:
GABAA receptors = test: Pre-clinical qEEG beta power and animal models of anxiety and depression; assay type: in vivo; conditions: pre-clinical studies
harmaline-induced tremor = test: rHIT model, coadministration of Compound 1 and Compound 2; assay type: in vivo, rat
Experimental: Rat Harmaline Induced Tremor (rHIT): The rHIT model was used to assess the impact of the combination of Compound 1 and Compound 2 on reducing the symptoms of tremor. Male SD rats (SLAC, Shanghai, China) weighing about 250 g at the time of testing were housed in a 12:12 light-dark cycle room throughout the study, with the lights on from 5 a.m. to 5 p.m, and fed ad libitum. […]
The rHIT methods described in Example 5 were used. […] After the 20-minute baseline recording, rats were dosed with harmaline and the post-harmaline effect was measured for 20 minutes. […]

[1] = Multiple escalating dose study, plasma pharmacokinetics of oral suspension (Cohorts 1-3); assay type: in vivo, human
Experimental: Healthy subjects aged 18 to 55 years were treated with an oral suspension of Compound 1 to study the safety, tolerability, pharmacokinetics and pharmacodynamics of Compound 1 in healthy subjects.
The study was a randomized, double-blind, placebo-controlled multiple escalating dose study comprised of 3 cohorts that each received an oral suspension. Each cohort consisted of two groups: one group treated with Compound 1 and another treated with placebo. In each cohort, the ratio of Compound 1-treated subjects to placebo-treated subjects was 3:1.
The Compound 1-treated subjects of Cohort 1 were treated with 15.0 mg of Compound 1 once per day (QD). The Compound 1-treated subjects of Cohort 2 were treated with 30.0 mg of Compound 1 QD. The Compound 1-treated subjects of Cohort 3 were treated with 60.0 mg of Compound 1 QD.
Patients in each cohort were treated with Compound 1 for 14 consecutive days, unless dosing was halted by the Safety Review Committee (SRC). The dosing of subjects in each of the cohorts was staggered with the decision to dose escalate based on SRC review of a minimum of 14 days of observation of safety and tolerability data and review of the available plasma PK data from the preceding cohort(s). Thus, dose escalation was predicated on tolerability of the prior cohorts.
Compound 1 was administered under fasted conditions (no food or drink, except water, for at least 10 hours prior to dosing). Immediately after administration of Compound 1, the subject was be administered 240 mL water. No additional fluid intake was allowed until 1 hour after Compound 1 administration.
Cohort 1 subjects received a single 15.0 mg dose of a Compound 1 suspension on the morning of Days 1-14. Cohort 2 subjects received a single 30.0 mg dose of a Compound 1 suspension on the morning of Days 1-14. Cohort 3 subjects received a single 60.0 mg dose of a Compound 1 suspension on the morning of Days 1-14. For all cohorts, the last treatment was administered on the morning of Day 14.
Data were obtained from the blood plasma samples collected from each cohort according to the schedule provided.
(§1) Plasma samples were analyzed to determine Compound 1 concentrations using a validated assay method. Pharmacokinetic variables (including but not limited to Cmax, Tmax and AUC(0-last)) were calculated using non-compartmental analysis. PK parameters for Compound 1 were derived from the plasma concentration data using non-compartmental analysis with Phoenix™ WinNonlin® v 8.0 (Pharsight Corporation, USA).
Blood (Cohorts 1-3): For each cohort, blood samples were collected on Days 1, 2, 3, 4, 5, 6 and 14 at the following time points: Day 1 at pre-dose (0 hour), 0.25, 0.5, 0.75, 1, 1.5, 2, 2.5, 3, 4, 6, 8, 12, 16 h post-dose; Day 2 at pre-dose (24 hours), Day 3 at pre-dose (48 hours), Day 4 at pre-dose (72 hours), Day 5 at pre-dose (96 hours), Day 6 at pre-dose (120 hours); Day 14 at pre-dose 0.25, 0.5, 0.75, 1, 1.5, 2, 2.5, 3, 4, 6, 8, 12, 16, 24, 36, 48, and 72 hours. Trough level blood samples were collected on Days 2, 3, 4, 5, 6 and 14, prior to the morning dose administrations.
Descriptive statistics were calculated for plasma and urine PK parameter and concentration data and summarized by study day and time point. Arithmetic means, coefficient of variation (CV), standard deviation, median, minimum, and maximum values, and number of observations were calculated for all PK parameters and trough concentration data. Except for Tmax, the geometric mean, geometric standard deviation, and geometric CV were provided for all PK parameter and concentration data.

[2] = Food Effect Cohort (Cohort 4), plasma pharmacokinetics fasted vs high-fat meal; assay type: in vivo, human
Experimental: A Food Effect Cohort (Cohort 4) was conducted to assess the effect of food on the PK profile of a single dose of Compound 1 when administered to healthy subjects. The subjects of Cohort 4 were treated with 30 mg of Compound 1 QD.
Cohort 4 subjects received a single 30 mg dose of a Compound 1 suspension on Days 1 and 5. The Day 1 dose was administered after a minimum of 10 hour fasting. No additional fluid intake was allowed until 1 hour after drug administration. A standard meal was given at least 4 hours post-dose. The Day 5 dose was administered following a high-fat, high calorie meal. Participants remained at the clinical site for a total of 8 days to complete pharmacokinetic sampling after the second dose.
as §1
Blood (Cohort 4): Serial blood samples were collected relative to the dosing of Compound 1 at the following time points on both Day 1 and Day 5: Pre-dose (0 hours), 0.25, 0.50, 0.75, 1.00, 1.50, 2.00, 2.50, 3.00, 4.00, 6.00, 8.00, 12.00, 16.00, 24.00, 36.00, 48.00 and 72.00 hours post-dose (±2 min).

[3] = Safety and tolerability in the multiple escalating dose study in healthy subjects; assay type: in vivo, human
Experimental: Adverse events (AEs) were monitored throughout the duration of the study.
To monitor for possible AEs, vital signs, hematology and clinical chemistry laboratory parameters, ECG readings, neurological examination findings, and EEG parameters and abnormal findings were recorded at each visit.

[4] = test system: GABAA receptors in the brain; test: Quantitative EEG (qEEG) alpha- and beta-band power in Phase 1 MAD trial; assay type: in vivo, human
Experimental: Pharmacodynamic (PD) effects of first dose and steady state Compound 1 concentrations on wake electroencephalograms (EEGs) were studied. Standard 16 channel continuous EEGs were obtained at the following time points: Day-1, Day 1 (1 hour after dosing), and Day 14 (1 hour after dosing).
The effect of Compound 1 on the quantitative EEG (qEEG) was measured in a Phase 1 multiple ascending dose (MAD) trial to understand the pharmacodynamic effect of Compound 1 on GABAA receptor activation. The frequency and amplitude of the detected electrical signals in response to treatment with a brain-active compound provide insights into brain function and brain state (e.g., awake, deep sleep, etc.) or pharmacological response. For instance, changes in power in the beta-band frequency can be used as a pharmacodynamic biomarker of GABAA receptor activation in response to a brain active compound.
EEG was recorded for 5 minutes in quiet eyes open condition using a standard 10-20 EEG electrode placement system at pre-dose and 1, 2, 4, 8 and 24 hours after dosing. Each lead was referenced to the Oz electrode. Artifacts were removed via visual inspections. EEG spectra were computed using Fourier transformation. The alpha-band frequency was set to 8.5-12.5 Hz, the beta-band frequency was set to 12.5 to 30 Hz. The ratio between each post-dose value and the associated pre-dose value for each electrode was used to calculate the fold EEG change in each frequency band so that a ratio of 1 represents no change from baseline. The mean of the central 9 electrodes was used for each subject and timepoint for final analysis.

[5] = test system: extrasynaptic form of GABAA receptors; test: PAM selectivity for extrasynaptic vs synaptic GABAA receptors
[6] = Cohort 1 (15.0 mg QD), Day 14 steady state, Geo Mean
[7] = Cohort 1 (15.0 mg QD), Day 14 steady state, Mean
[8] = Cohort 1 (15.0 mg QD), Day 14 steady state, Median
[9] = Cohort 2 (30.0 mg QD), Day 14 steady state, Geo Mean
[10] = Cohort 2 (30.0 mg QD), Day 14 steady state, Mean
[11] = Cohort 3 (60.0 mg QD), Day 14 steady state, Geo Mean
[12] = 30 mg single dose, Fasted (Day 1), n = 10, Mean
[13] = 30 mg single dose, Fed (high-fat, high calorie meal), n = 10, Mean
[14] = Cohorts 1-3, 15-60 mg QD for 14 days
[15] = 30 mg, one hour post-dose on Day 1, healthy volunteers
[16] = 60 mg, one hour post-dose on Day 1, healthy volunteers
[17] = healthy volunteers, days 1 and 14

COC[C@@]1(O)CC[C@@]2(C)[C@@H](CC[C@@H]3[C@@H]2CC[C@]2(C)[C@@H](C(=O)Cn4ccnc4)CC[C@@H]32)C1 [Compound 1, 3α-Hydroxy-3β-methoxymethyl-21-(1′-imidazolyl)-5α-pregnan-20-one]
increase in beta power associated with robust activity in animal models of anxiety and depression (GABAA receptors): 1.6 fold | effect of Compound 1 on the efficacy of Compound 2 in treating tremor (harmaline-induced tremor; Compound 1 3 mg/kg p.o.): does not inhibit | effect of the addition of Compound 1 on the tremor-reducing effects of Compound 2 (harmaline-induced tremor; Compound 1 3 mg/kg p.o. (FIG. 11)): did not appear to enhance | accumulation factor of the dosing interval (ratio of AUCDay14/AUCDay1) ([1]; Cohort 1 (15 mg QD) and Cohort 2 (30 mg QD)): approximately 1.25 | CLss/F [1, 6]: 30.497 L/h | t1/2 [1, 6]: 14.613 h | CLss/F [1, 7]: 31.415 L/h | t1/2 [1, 7]: 14.772 h | AUCinf [1, 8]: 595.2 ng·h/mL | CLss/F [1, 8]: 30.41 L/h | CLss/F [1, 9]: 30.178 L/h | t1/2 [1, 9]: 12.647 h | CLss/F [1, 10]: 30.949 L/h | t1/2 [1, 10]: 12.701 h | CLss/F ([1]; Cohort 2 (30.0 mg QD), Day 14 steady state, Median): 30.12 L/h | accumulation factor of the dosing interval (ratio of AUCDay14/AUCDay1) ([1]; Cohort 3 (60 mg QD)): 0.89 | CLss/F [1, 11]: 30.398 L/h | t1/2 [1, 11]: 12.164 h | CLss/F ([1]; Cohort 3 (60.0 mg QD), Day 14 steady state, Mean): 32.142 L/h | CLss/F ([1]; Cohort 3 (60.0 mg QD), Day 14 steady state, Median): 28.45 L/h | AUC0-tau ([1]; human, in vivo, 60 mg): 2356.80 ng·h/mL | steady state clearance ([1]; human, in vivo, 60 mg): approximately 31 L/hour | absorption ([1]; in vivo, po): rapid absorption | t1/2 fasted vs fed conditions ([2]; 30 mg dose): similar | AUC increase in the fed state versus the fasted state ([2]; 30 mg dose group): 1.17 fold | AUC0-t Fed/Fasted Ratio ([2]; 30 mg dose, high-fat meal): 1.17 | Cmax Fed/Fasted Ratio ([2]; 30 mg dose, high-fat meal): 0.64 | AUC0-last [2, 12]: 597.7 ng·h/mL | AUC %Extrap [2, 12]: 0.8702% | AUCinf [2, 12]: 602.3 ng·h/mL | Cmax [2, 12]: 84.18 ng/mL | AUC0-last [2, 13]: 629.9 ng·h/mL | AUC %Extrap [2, 13]: 0.6632% | AUCinf [2, 13]: 634.2 ng·h/mL | Cmax [2, 13]: 45.36 ng/mL | Tmax ([2]; 30 mg single dose, Fed (high-fat, high calorie meal), n = 10, Median): 3.25 h | Cmax decrease under fed conditions ([2]; human, in vivo, 30 mg): 0.64 fold | half-life ([2]; human, in vivo, 30 mg single dose, Fasted (Day 1), n = 10, Mean): 11.2 h | Serious Adverse Events [3, 14]: no Serious Adverse Events | vital sign, ECG, or lab abnormalities [3, 14]: no clinically relevant vital sign, ECG, or lab abnormalities | maximum tolerated dose and serious adverse events ([3]; MAD study, after a dose of 60 mg, beta power increase up to 2.8-fold): without achieving a maximum tolerated dose (MTD) or demonstrating any serious adverse events (SAEs) | effects on the qEEG alpha and beta power at Day 14 ([4]; 30 mg and 60 mg QD): sustained | average increase in qEEG alpha power compared to baseline [4, 15]: approximately 1.5 fold | average increase in qEEG beta power compared to baseline [4, 15]: ~1.6 fold | increase in qEEG alpha power compared to baseline [4, 16]: 2.6 fold | increase in qEEG beta power compared to baseline [4, 16]: 2.8 fold | increases in beta power ([4]; MAD study, up to 60 mg): up to 2.8 fold | power of the alpha-band frequency (qEEG) [4, 17]: marked increases; also recorded: markedly increase | power of the beta-band frequency (qEEG) [4, 17]: marked increases; also recorded: markedly increase | selectivity as PAM of the extrasynaptic form of GABAA receptors compared to the synaptic form [5]: approximately 10 fold

From patent US20240197756A1, “METHODS OF TREATMENT WITH NEUROACTIVE STEROIDS” (priority 2021, published 2024)
